How the values were obtained:
Format in all cases: in vivo
Conditions in all cases: Preemergence, scale 0 to 100
kochia (Kochia scoparia) = assay: Test E pre-/postemergence: kochia
From the text: (§1) Seeds of plant species selected from corn (Zea mays), soybean (Glycine max), velvetleaf (Abutilon theophrasti), lambsquarters (Chenopodium album), poinsettia, wild (wild poinsettia, Euphorbia heterophylla), pigweed, palmer (palmer pigweed, Amaranthus palmeri), waterhemp (common waterhemp, Amaranthus rudis), smartweed (ladysthumb smartweed, Polygonum persicaria), surinam grass (Brachiaria decumbens), crabgrass, large (large crabgrass, Digitaria sanguinalis), crabgrass, Brazil (Brazilian crabgrass, Digitaria horizontalis), panicum, fall (fall panicum, Panicum dichotomiflorum), foxtail, giant (giant foxtail, Setaria faberii), foxtail, green (green foxtail, Setaria viridis), goosegrass (Eleusine indica), johnsongrass (Sorghum halepense), ragweed (common ragweed, Ambrosia elation), barnyardgrass (Echinochloa crus-galli), sandbur (southern sandbur, Cenchrus echinatus), arrowleaf sida (Sida rhombifolia), ryegrass, Italian (Italian ryegrass, Lolium multiflorum), dayflower, (VA) (Virginia dayflower, Commelina virginica), field bindweed (Convolvulus arvensis), cocklebur (common cocklebur, Xanthium strumarium), morningglory (Ipomoea coccinea), nightshade (eastern black nightshade, Solanum ptycanthum), kochia (Kochia scoparia), nutsedge, yellow (yellow nutsedge, Cyperus esculentus) and beggarticks (hairy beggarticks, Bidens pilosa) were planted into a silt loam soil and treated preemergence with test chemicals formulated in a non-phytotoxic solvent mixture which included a surfactant. At the same time, plants selected from these crop and weed species were planted in pots containing a growing medium comprising spaghnum peat moss, vermiculite, wetting agent and starter nutrients and treated with postemergence applications of some of the test chemicals formulated in the same manner. Plants ranged in height from 2 to 18 cm for postemergence treatments (1- to 4-leaf stage).
(§2) Treated plants and controls were maintained in a greenhouse for 14 to 21 days, after which time all species were compared to controls and visually evaluated. Plant response ratings, summarized in Table E, are based on a scale of 0 to 100 where 0 is no effect and 100 is complete control. A dash (-) response means no test result.

[1] = system: morningglory (Ipomoea coccinea); assay: Test E pre-/postemergence: morningglory
From the text: as §1, §2

[2] = system: poinsettia, wild (wild poinsettia, Euphorbia heterophylla); assay: Test E pre-/postemergence: poinsettia, wild
From the text: as §1, §2

[3] = system: cocklebur (common cocklebur, Xanthium strumarium); assay: Test E pre-/postemergence: cocklebur
From the text: as §1, §2

[4] = system: dayflower, (VA) (Virginia dayflower, Commelina virginica); assay: Test E pre-/postemergence: dayflower, (VA)
Method in brief: (§3)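 Scores reflect greenhouse visual evaluation after 14–21 days, 0 meaning no effect and 100 complete control relative to untreated plants, for pre- and postemergence (1–4 leaf) applications.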

[5] = system: smartweed (ladysthumb smartweed, Polygonum persicaria); assay: Test E pre-/postemergence: smartweed
Method in brief: as §3

[6] = system: barnyardgrass (Echinochloa crus-galli); assay: Test E pre-/postemergence: barnyardgrass
Method in brief: as §3

[7] = system: nightshade (eastern black nightshade, Solanum ptycanthum); assay: Test E pre-/postemergence: nightshade
Method in brief: as §3

[8] = system: nutsedge, yellow (yellow nutsedge, Cyperus esculentus); assay: Test E pre-/postemergence: nutsedge, yellow
Method in brief: as §3

[9] = system: lambsquarters (Chenopodium album); assay: Test E pre-/postemergence: lambsquarters
From the text: as §1, §2

corn (Zea mays) = assay: Test E pre-/postemergence: corn
From the text: as §1, §2

COc1nn(-c2ccc(C(F)(F)F)cc2)nc1Cc1ccnc(C(F)(F)F)c1 [Compound 15, 4-[[5-methoxy-2-[4-(trifluoromethyl)phenyl]-2H-1,2,3-triazol-4-yl]methyl]-2-(trifluoromethyl)pyridine]
Plant response rating: Kochia (kochia (Kochia scoparia); 16 g ai/ha): 35 | Plant response rating: Kochia (kochia (Kochia scoparia); 31 g ai/ha): 65 | Plant response rating: Kochia (kochia (Kochia scoparia); 62 g ai/ha): 90 | Plant response rating: Kochia (kochia (Kochia scoparia); 125 g ai/ha): 100 | Plant response rating: Kochia (kochia (Kochia scoparia); 250 g ai/ha): 100 | Plant response rating: Morningglory ([1]; 16 g ai/ha): 10 | Plant response rating: Morningglory ([1]; 31 g ai/ha): 50 | Plant response rating: Morningglory ([1]; 62 g ai/ha): 50 | Plant response rating: Morningglory ([1]; 125 g ai/ha): 65 | Plant response rating: Morningglory ([1]; 250 g ai/ha): 65 | Plant response rating: Poinsettia, Wild ([2]; 16 g ai/ha): 30 | Plant response rating: Poinsettia, Wild ([2]; 31 g ai/ha): 30 | Plant response rating: Poinsettia, Wild ([2]; 62 g ai/ha): 65 | Plant response rating: Poinsettia, Wild ([2]; 125 g ai/ha): 75 | Plant response rating: Poinsettia, Wild ([2]; 250 g ai/ha): 80 | Plant response rating: Cocklebur ([3]; 31 g ai/ha): 0 | Plant response rating: Cocklebur ([3]; 62 g ai/ha): 0 | Plant response rating: Cocklebur ([3]; 250 g ai/ha): 20 | Plant response rating: Dayflower, VA ([4]; 16 g ai/ha): 5 | Plant response rating: Dayflower, VA ([4]; 31 g ai/ha): 10 | Plant response rating: Dayflower, VA ([4]; 62 g ai/ha): 25 | Plant response rating: Dayflower, VA ([4]; 125 g ai/ha): 60 | Plant response rating: Dayflower, VA ([4]; 250 g ai/ha): 95 | Plant response rating: Smartweed ([5]; 31 g ai/ha): 60 | Plant response rating: Smartweed ([5]; 62 g ai/ha): 98 | Plant response rating: Smartweed ([5]; 125 g ai/ha): 98 | Plant response rating: Smartweed ([5]; 250 g ai/ha): 100 | Plant response rating: Barnyardgrass ([6]; 16 g ai/ha): 10 | Plant response rating: Barnyardgrass ([6]; 31 g ai/ha): 50 | Plant response rating: Barnyardgrass ([6]; 62 g ai/ha): 85 | Plant response rating: Barnyardgrass ([6]; 125 g ai/ha): 98 | Plant response rating: Barnyardgrass ([6]; 250 g ai/ha): 100 | Plant response rating: Nightshade ([7]; 16 g ai/ha): 5 | Plant response rating: Nightshade ([7]; 31 g ai/ha): 35 | Plant response rating: Nightshade ([7]; 62 g ai/ha): 98 | Plant response rating: Nightshade ([7]; 125 g ai/ha): 98 | Plant response rating: Nightshade ([7]; 250 g ai/ha): 100 | Plant response rating: Nutsedge, Yellow ([8]; 16 g ai/ha): 0 | Plant response rating: Nutsedge, Yellow ([8]; 31 g ai/ha): 0 | Plant response rating: Nutsedge, Yellow ([8]; 62 g ai/ha): 0 | Plant response rating: Nutsedge, Yellow ([8]; 125 g ai/ha): 0 | Plant response rating: Nutsedge, Yellow ([8]; 250 g ai/ha): 0 | Plant response rating: Lambsquarters ([9]; 16 g ai/ha): 90 | Plant response rating: Lambsquarters ([9]; 31 g ai/ha): 100 | Plant response rating: Lambsquarters ([9]; 62 g ai/ha): 100 | Plant response rating: Lambsquarters ([9]; 125 g ai/ha): 100 | Plant response rating: Lambsquarters ([9]; 250 g ai/ha): 100 | Plant response rating: Corn (corn (Zea mays); 16 g ai/ha): 0 | Plant response rating: Corn (corn (Zea mays); 31 g ai/ha): 0 | Plant response rating: Corn (corn (Zea mays); 62 g ai/ha): 0 | Plant response rating: Corn (corn (Zea mays); 125 g ai/ha): 5 | Plant response rating: Corn (corn (Zea mays); 250 g ai/ha): 10

— patent US9302999B2, “Substituted triazoles as herbicides” (E. I. DU PONT DE NEMOURS AND COMPANY, priority 2012, dated 2016)
